Laboratory results taken from paper PMC6356585 (Viruses, 2018).
Read-outs that look alike come from different tables or passages of the source.

Tests used:
C6/36 cells = assay type: cell-based, Ae. albopictus
ZIKV SPH [1] = assay: Autophagy compound library screen, ZIKV SPH titer (TCID50) in Vero cells; assay type: cell-based, Zika virus; settings: 10 µM compound, MOI 0.1, 40 h, TCID50, ± SEM, three independent trials; for activity at 10 µM: Zika virus, Vero, read-out: ZIKV SPH Relative Titer in Vero Cells
Vero cells = assay: Cell viability (CellTiter-Glo) of Vero cells; assay type: cell-based
ZIKV SPH [2] = assay: Autophagy compound library screen, ZIKV SPH titer (TCID50) in C6/36 cells; assay type: cell-based, Zika virus; settings: 10 µM compound, MOI 0.1, 96 h, TCID50, ± SEM, three independent trials; for activity at 10 µM: Zika virus, C6/36, read-out: ZIKV SPH Relative Titer in C6/36 Cells
[3] = 10 µM compound, 96 h, CellTiter-Glo, ± SEM, three independent trials
[4] = 10 µM compound, 40 h, CellTiter-Glo, ± SEM, three independent trials

SMILES | C6/36 Viability (C6/36 cells; [3]) | ZIKV SPH Relative Titer in Vero Cells (ZIKV SPH [1]) | Vero Viability (Vero cells; [4]) | ZIKV SPH Relative Titer in C6/36 Cells (ZIKV SPH [2]) | Vero Viability (Vero cells; 10 µM) | C6/36 Viability (C6/36 cells; 10 µM) | activity at 10 µM (ZIKV SPH [1]) [%] | activity at 10 µM (ZIKV SPH [2]) [%]
COC(=O)C1=C(C)NC(C)=C([N+](=O)[O-])C1c1ccccc1C(F)(F)F (racemic) [(±)Bay K8644] | 53 ± 11.1% of untreated control | 34.9 ± 15.2% of untreated control | 94.0 ± 3% of untreated control | 39.4 ± 10.7% of untreated control | – | – | – | –
Nc1ncnc2c1nc(Sc1ccc(Cl)cc1)n2[C@@H]1O[C@@H]2COP(=O)([O-])O[C@H]2[C@H]1O.[Na+] [8-CPT-cAMP·Na] | 75 ± 3.7% of untreated control | 107.8 ± 65.3% of untreated control | 92.7 ± 0.7% of untreated control | 60.1 ± 18.3% of untreated control | – | – | – | –
Cl.O=C(NCc1ccncc1)C12CC3C[C@H](C1)CC(c1ccc(Cl)cc1)(C3)C2 [ABC294640·HCl] | 32 ± 3.5% of untreated control | 51.7 ± 29.2% of untreated control | – | 26.0 ± 10.8% of untreated control | 87.7 ± 6.8% of untreated control | – | – | –
N#CC(C#N)=C(N)/C(C#N)=C/c1ccc(O)cc1 [AG112] | 80 ± 5.8% of untreated control | 77.7 ± 38.2% of untreated control | 96.7 ± 3.7% of untreated control | 85.5 ± 21.3% of untreated control | – | – | – | –
NC(=O)c1ncn([C@@H]2O[C@H](CO)[C@@H](O)[C@H]2O)c1N [AICAR] | 125 ± 16.4% of untreated control | 112.3 ± 32.3% of untreated control | 90.0 ± 11.1% of untreated control | 252.0 ± 115% of untreated control | – | – | – | –
CCN(CC)CCCCN1c2ccccc2Oc2ccc(Cl)cc21.Cl [Akt Inhibitor X·HCl] | 7 ± 1.9% of untreated control | 3.5 ± 3.3% of untreated control | – | 0.0 ± 0% of untreated control | 32.3 ± 14.2% of untreated control | – | – | –
COc1ccc(C[C@H]2NC[C@H](O)[C@H]2OC(C)=O)cc1 [Anisomycin] | 7 ± 0.9% of untreated control | 0.0 ± 0% of untreated control | 12.7 ± 4.3% of untreated control | 0.0 ± 0% of untreated control | – | – | – | –
CCCCCCCCCCCCCCC[C@@H](O)[C@H](CO)NC(C)=O [C2-dihydroceramide] | 97 ± 5.8% of untreated control | 36.5 ± 3% of untreated control | – | 262.1 ± 51.7% of untreated control | 101.3 ± 3.7% of untreated control | – | – | –
C=CCNC1=C2C[C@@H](C)C[C@H](OC)[C@H](O)[C@@H](C)/C=C(\C)[C@H](OC(N)=O)[C@@H](OC)/C=C\C=C(/C)C(=O)NC(=CC1=O)C2=O [Compound 17-AAG, 17-AAG] | 79 ± 16.4% of untreated control | 36.4 ± 20.8% of untreated control | – | 18.2 ± 11.2% of untreated control | – | – | – | –
CNc1ccc2oc(C[C@H]3O[C@@]4(CC[C@H]3C)O[C@H]([C@H](C)C(=O)c3ccc[nH]3)[C@H](C)C[C@H]4C)nc2c1C(=O)O [Compound A23187, A23187] | 1 ± 0% of untreated control | 0.5 ± 0.5% of untreated control | 17.0 ± 6.7% of untreated control | 0.0 ± 0% of untreated control | – | – | – | –
O[C@@H](CS)[C@@H](O)CS [DTT] | 79 ± 4.4% of untreated control | 60.2 ± 20.1% of untreated control | 93.0 ± 1.5% of untreated control | 145.7 ± 16.6% of untreated control | – | – | – | –
C[C@H](CCC(=O)[O-])[C@H]1CC[C@H]2[C@@H]3CC[C@@H]4C[C@H](O)CC[C@]4(C)[C@H]3C[C@H](O)[C@]12C.[Na+] [Deoxycholate·Na] | 83 ± 1% of untreated control | 76.6 ± 16.6% of untreated control | – | 90.6 ± 12.5% of untreated control | 95.3 ± 2.6% of untreated control | – | – | –
CCCC(=O)Nc1ncnc2c1ncn2[C@@H]1O[C@@H]2COP(=O)([O-])O[C@H]2[C@H]1OC(=O)CCC.[Na+] [Dibutyryl cAMP·Na] | 117 ± 10.7% of untreated control | 60.6 ± 36.7% of untreated control | – | 142.6 ± 63.9% of untreated control | 98.3 ± 4.4% of untreated control | – | – | –
COc1cc(CNC(=O)CCCCCCC(C)C)ccc1O [Dihydrocapsaicin] | – | – | – | – | 92.3 ± 3.8% of untreated control | 61 ± 2.2% of untreated control | 28.7 ± 10.5 | 64.1 ± 16
CCCCCC[C@@H]([C@@H](C)O)n1cnc2c(N)ncnc21.Cl [EHNA·HCl] | 55 ± 4.2% of untreated control | 81.0 ± 7.6% of untreated control | – | 36.4 ± 9.1% of untreated control | 92.3 ± 2% of untreated control | – | – | –
COc1cc([C@@H]2c3cc4c(cc3[C@@H](O[C@@H]3O[C@@H]5CO[C@@H](C)O[C@H]5[C@H](O)[C@H]3O)[C@H]3COC(=O)[C@H]23)OCO4)cc(OC)c1O [Etoposide] | 119 ± 12.5% of untreated control | – | – | – | 84.0 ± 3.6% of untreated control | – | 134 ± 34.3 | 737 ± 89.3
O=C1NCN(c2ccccc2)C12CCN(CCCC(c1ccc(F)cc1)c1ccc(F)cc1)CC2 [Fluspirilene] | 26 ± 10.3% of untreated control | – | – | – | 56.7 ± 16% of untreated control | – | 2.5 ± 0.6 | 1 ± 0.7
CN(C)CCCn1cc(C2=C(c3c[nH]c4ccccc34)C(=O)NC2=O)c2ccccc21 [Go6850] | 21 ± 0% of untreated control | 1.3 ± 0.9% of untreated control | 36.0 ± 9% of untreated control | 1.4 ± 1.4% of untreated control | – | – | – | –
